We go through 5 compounds from the NIST ThermoML archive (doi:10.1007/s10765-011-0997-8).

Numbers after ± are expanded uncertainties.

The conditions of the series: 101.33 kPa, Liquid; for speed of sound: Linear variable-path acoustic interferometer; for mass density: Pycnometric method.

`C1CCOCC1` [tetrahydropyran]: under “298.15 K”, the speed of sound came to 1272 ± 3 m/s. The mass density (308.15 K) is 868.81 ± 0.49 kg/m3.

Consider `Cc1ccc(C)cc1` [1,4-dimethylbenzene], for which, under “298.15 K”, the speed of sound amounted to 1310 ± 2 m/s and the mass density was determined as 856.65 ± 0.28 kg/m3.

On to `Cc1ccccc1` [toluene], for which, where the note is “298.15 K”, the speed of sound is listed as 1303 ± 2 m/s and the mass density amounted to 862.22 ± 0.31 kg/m3.

`Cc1ccccc1C` [1,2-dimethylbenzene]: under “298.15 K”, the speed of sound is listed as 1346 ± 2 m/s and the mass density worked out at 875.9 ± 0.28 kg/m3.

In the case of `c1ccccc1` [benzene], under “298.15 K”, the speed of sound is listed as 1298 ± 3 m/s and the mass density is 873.64 ± 0.46 kg/m3.
